Active and inactive are the calls of the source. No cut-off for these calls is given here.
Assays:
[1] = target: T1, Amine oxidase [flavin-containing] A (Homo sapiens, UniProt P21397); assay: Inhibition of human MAO-A using kynuramine as substrate at 10 uM incubated for 30 mins by spectrophotometry analysis relative to control; details: 0.5 h
T1 sequence (P21397 whole entry): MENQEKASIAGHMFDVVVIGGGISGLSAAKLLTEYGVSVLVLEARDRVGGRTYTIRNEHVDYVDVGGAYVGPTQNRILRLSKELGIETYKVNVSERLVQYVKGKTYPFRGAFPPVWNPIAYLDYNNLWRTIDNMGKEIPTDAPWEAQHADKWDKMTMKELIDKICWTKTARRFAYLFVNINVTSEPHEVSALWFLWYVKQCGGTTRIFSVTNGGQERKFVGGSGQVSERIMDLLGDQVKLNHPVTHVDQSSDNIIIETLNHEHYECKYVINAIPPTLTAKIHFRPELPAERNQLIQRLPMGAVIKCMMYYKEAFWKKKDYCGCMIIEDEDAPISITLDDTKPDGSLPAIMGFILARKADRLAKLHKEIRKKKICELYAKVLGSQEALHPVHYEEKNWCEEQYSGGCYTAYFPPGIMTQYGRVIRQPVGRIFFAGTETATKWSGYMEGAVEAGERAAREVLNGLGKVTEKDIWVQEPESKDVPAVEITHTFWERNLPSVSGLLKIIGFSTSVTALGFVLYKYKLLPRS

Rattus norvegicus = species on record: Rattus norvegicus; assay: Selectivity index, ratio of IC50 for S-COMT in rat liver homogenates to IC50 for MB-COMT in rat brain homogenates; assay type: tissue-based
[2] = Antioxidant activity assessed as ORAC-FL index; assay type: functional
[3] = target: T2, Amine oxidase [flavin-containing] B (Homo sapiens, UniProt P27338); assay: Inhibition of human MAO-B using kynuramine as substrate at 10 uM incubated for 30 mins by spectrophotometry analysis relative to control; details: 0.5 h
T2 sequence (P27338 whole entry): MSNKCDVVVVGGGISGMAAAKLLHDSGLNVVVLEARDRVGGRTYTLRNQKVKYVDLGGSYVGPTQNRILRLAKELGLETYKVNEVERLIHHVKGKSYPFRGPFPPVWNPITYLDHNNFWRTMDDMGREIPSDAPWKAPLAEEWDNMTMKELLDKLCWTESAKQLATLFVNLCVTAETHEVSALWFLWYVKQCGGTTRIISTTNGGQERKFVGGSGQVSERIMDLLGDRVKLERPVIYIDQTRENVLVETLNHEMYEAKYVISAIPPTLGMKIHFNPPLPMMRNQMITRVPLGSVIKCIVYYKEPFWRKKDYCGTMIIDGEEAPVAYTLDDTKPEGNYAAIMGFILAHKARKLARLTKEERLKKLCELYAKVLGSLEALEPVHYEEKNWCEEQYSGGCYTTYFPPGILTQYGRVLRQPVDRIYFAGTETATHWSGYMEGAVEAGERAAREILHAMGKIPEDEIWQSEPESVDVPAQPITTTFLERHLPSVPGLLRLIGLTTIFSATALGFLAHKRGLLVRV

SH-SY5Y [4] = assay: Cytoprotective activity against t-BHP induced oxidative stress in retinoic acid and TPA-differentiated human SH-SY5Y cells assessed as increase in resorufin fluorescence at 10 uM pretreated for 30 mins followed by t-BHP stimulation and measured after 24 hrs by resazurin dye based analysis; assay type: functional, cell-based; details: time 24.5 hrs
[5] = target: T3, Catechol O-methyltransferase (Rattus norvegicus) (UniProt P22734); assay: Inhibition of S-COMT in rat liver homogenates using adrenaline as substrate and SAM as cofactor at 30 uM preincubated for 20 mins followed by substrate addition and measured after 5 mins relative to control; assay type: tissue-based; details: time 25.0 min
T3 sequence (whole entry): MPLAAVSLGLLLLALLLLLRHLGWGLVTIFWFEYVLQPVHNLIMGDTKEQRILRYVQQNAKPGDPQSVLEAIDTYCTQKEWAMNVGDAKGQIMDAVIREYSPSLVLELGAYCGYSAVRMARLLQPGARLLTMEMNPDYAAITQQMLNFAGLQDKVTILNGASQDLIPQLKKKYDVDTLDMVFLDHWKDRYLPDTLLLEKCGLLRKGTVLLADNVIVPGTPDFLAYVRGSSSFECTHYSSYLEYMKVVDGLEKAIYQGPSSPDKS

[6] = Oxidation potential of compound at pH 7.3 by differential pulse voltammetry analysis; assay type: physicochemical
SH-SY5Y [7] = assay: Cytotoxicity against retinoic acid and TPA-differentiated human SH-SY5Y cells assessed as reduction in metabolic activity by measuring resazurin reduction at 10 uM incubated for 24 hrs by resazurin dye based assay relative to control; assay type: toxicity, cell-based; set-up: scale not given: the % may be the effect or the level left
SH-SY5Y [8] = assay: Cytotoxicity against retinoic acid and TPA-differentiated human SH-SY5Y cells assessed as reduction in lysosomal activity by measuring neutral red dye uptake at 10 uM incubated for 24 hrs by neutral red dye based assay relative to control; assay type: toxicity, cell-based; set-up: scale not given: the % may be the effect or the level left
[9] = target: T4, Catechol O-methyltransferase (Rattus norvegicus, UniProt P22734); assay: Inhibition of MB-COMT in rat liver homogenates using adrenaline as substrate and SAM as cofactor preincubated for 20 mins followed by substrate addition and measured after 5 mins; assay type: tissue-based
T4 sequence (P22734 whole entry): T3 sequence (whole entry)

SH-SY5Y [10] = assay: Cytotoxicity against retinoic acid and TPA-differentiated human SH-SY5Y cells assessed as reduction in lysosomal activity at 50 uM incubated for 24 hrs by neutral red dye based assay; assay type: toxicity, cell-based
[11] = target: T4, Catechol O-methyltransferase; assay: Inhibition of MB-COMT in rat brain homogenates using adrenaline as substrate and SAM as cofactor preincubated for 20 mins followed by substrate addition and measured after 5 mins; assay type: tissue-based
SH-SY5Y [12] = assay: Cytotoxicity against retinoic acid and TPA-differentiated human SH-SY5Y cells assessed as reduction in lysosomal activity by measuring neutral red dye internalization at 10 to 50 uM incubated for 24 hrs by neutral red dye based assay; assay type: toxicity, cell-based; details: dose 10-50 µM
SH-SY5Y [13] = assay: Cytotoxicity against retinoic acid and TPA-differentiated human SH-SY5Y cells assessed as reduction in metabolic activity by measuring reduction in resorufin fluorescence at 10 to 50 uM incubated for 24 hrs by resazurin dye based assay; assay type: toxicity, cell-based; details: dose 10-50 µM
SH-SY5Y [14] = assay: Cytotoxicity against retinoic acid and TPA-differentiated human SH-SY5Y cells assessed as increase in intracellular ROS formation by measuring increase in DCF fluorescence at 10 to 50 uM incubated for 24 hrs by DCF fluorescence analysis; assay type: toxicity, cell-based; details: dose 10-50 µM
[15] = target: T3, Catechol O-methyltransferase (Rattus norvegicus); assay: Inhibition of MB-COMT in rat liver homogenates using adrenaline as substrate and SAM as cofactor at 30 uM preincubated for 20 mins followed by substrate addition and measured after 5 mins relative to control; assay type: tissue-based; details: time 25.0 min
[16] = target: T3, Catechol O-methyltransferase (Rattus norvegicus); assay: Inhibition of MB-COMT in rat brain homogenates using adrenaline as substrate and SAM as cofactor at 30 uM preincubated for 20 mins followed by substrate addition and measured after 5 mins relative to control; assay type: tissue-based; details: time 25.0 min
[17] = target: T2, Amine oxidase [flavin-containing] B; assay: Inhibition of human MAO-B using kynuramine as substrate incubated for 30 mins by spectrophotometry analysis
Homo sapiens = species on record: Homo sapiens; assay: Selectivity index, ratio of IC50 for human MAO-A to IC50 for human MAO-B
[18] = Retention time of compound at pH 2.6 by LC/UV analysis; assay type: physicochemical; details: buffer
[19] = Chromatographic hydrophobicity index of compound at pH 2.6 by HPLC analysis; assay type: physicochemical

| SMILES | inhibition at 10 µM [1] | Ratio IC50 (Rattus norvegicus) | Activity index [2] | inhibition at 10 µM [3] | Activity (SH-SY5Y [4]) | inhibition [5] | Ep [6] | Activity (SH-SY5Y [7]) | Activity (SH-SY5Y [8]) | IC50 [9] | Activity (SH-SY5Y [10]) | IC50 [11] | Activity (SH-SY5Y [13]) | IC50 [17] | Ratio IC50 (Homo sapiens) | also measured |
| --- | --- | --- | --- | --- | --- | --- | --- | --- | --- | --- | --- | --- | --- | --- | --- | --- |
| C[C@H](NCc1ccc(OCc2cccc(F)c2)cc1)C(N)=O [SAFINAMIDE] | < 50% | – | – | – | – | – | – | – | – | – | – | – | – | – | – | – |
| O=C(/C=C/C=C/c1ccc(O)c(O)c1)Nc1ccccc1 | < 50% | > 19 | 4.1 | < 50% | Active | < 50% | 114 mV | > 85% | > 85% | 6.13 µM | Toxic | 1.62 µM | – | – | – | – |
| O=C(/C=C/C=C/c1ccc(O)c(O)c1)NCc1ccccc1 | < 50% | > 20 | 4 | < 50% | Active | < 50% | 129 mV | > 85% | > 85% | 4.27 µM | Toxic | 1.48 µM | – | – | – | – |
| O=C(O)/C=C/c1ccc(O)c(O)c1 [CAFFEIC ACID] | < 50% | – | 4.8 | < 50% | – | – | 168 mV | – | – | – | – | – | Non-Toxic | – | – | Activity (SH-SY5Y [12]): Non-Toxic |
| O=C(O)/C=C/C=C/c1ccc(O)c(O)c1 [DEMETHYLENATED PIPERIC ACID] | < 50% | – | 5.5 | < 50% | inactive | < 50% | 129 mV | – | – | – | – | – | Non-Toxic | – | – | Activity (SH-SY5Y [14]): Non-Toxic; inhibition [15]: < 50%; inhibition [16]: < 50%; Activity (SH-SY5Y [12]): Non-Toxic |
| N#C/C(=C\C=C\c1ccc(O)c(O)c1)C(=O)NCc1ccccc1 [LS-104] | < 50% | – | 2.8 | – | Active | < 50% | 174 mV | > 85% | > 85% | – | Toxic | – | – | 1.15 µM | > 8.7 | inhibition [15]: < 50%; inhibition [16]: < 50% |
| N#C/C(=C\C=C\c1ccc(O)c(O)c1)C(=O)NCCc1ccccc1 | < 50% | > 24 | 3 | – | Active | < 50% | 163 mV | – | > 85% | 4 µM | Toxic | 1.27 µM | Non-Toxic | 4.38 µM | > 2.3 | – |
| O=C(/C=C/C=C/c1ccc(O)c(O)c1)NCCc1ccccc1 | < 50% | > 22 | 3.3 | < 50% | Active | < 50% | 124 mV | – | > 85% | 3.64 µM | Toxic | 1.32 µM | Non-Toxic | – | – | – |
| O=C(/C=C/C=C/c1ccc(O)c(O)c1)N1CCCCC1 | < 50% | > 18 | 4.3 | – | Active | < 50% | 113 mV | > 85% | > 85% | 3.84 µM | Toxic | 1.65 µM | – | 2.5 µM | > 4 | Activity (SH-SY5Y [14]): Non-Toxic; Retention_time [18]: 10.08 min; CHI [19]: 49.61 |
| N#C/C(=C\C=C\c1ccc(O)c(O)c1)C(=O)O | < 50% | – | 4.9 | < 50% | inactive | < 50% | 144 mV | – | – | – | – | – | Non-Toxic | – | – | inhibition [15]: < 50%; inhibition [16]: < 50%; Activity (SH-SY5Y [12]): Non-Toxic |
| N#C/C(=C\C=C\c1ccc(O)c(O)c1)C(=O)Nc1ccccc1 | < 50% | > 12 | 3.5 | – | Active | < 50% | 161 mV | > 85% | > 85% | 3.74 µM | Toxic | 2.41 µM | – | 4.55 µM | > 2.2 | – |

From ChEMBL document CHEMBL5352424, “Boosting caffeic acid performance as antioxidant and monoamine oxidase B/catechol-O-methyltransferase inhibitor” (Eur J Med Chem, 2022)
